Experimental findings from article PMC10934098, “Platinum(0)-η^2-1,2-(E)ditosylethene Complexes Bearing Phosphine, Isocyanide and N-Heterocyclic Carbene Ligands: Synthesis and Cytotoxicity towards Ovarian and Breast Cancer Cells” (Molecules, 2024) are described below.

Usually IC50 stands for the concentration at which inhibition is half-maximal.

A value given as a limit tells only on which side of the number the result lay.

The test system of data set [1] is A2780 (cisplatin-sensitive ovarian cancer cells). As to the kind of experiment: Antiproliferative activity (CellTiter-Glo cytotoxicity assay) on A2780. The following applies: 96 h of incubation, stock solutions in DMSO (cisplatin in H2O/NaCl). It is filed as cell-based, human. How it is done: (§1) With the aim of exploring the potential anticancer effects of platinum(0)-η^2-1,2-(E)ditosylethene complexes, we exposed a set of three distinct human tumor cell lines (ovarian cancer A2780 and its cisplatin-resistant clone A2780cis, and triple-negative breast cancer MDA-MB-231) to the synthesized compounds and cisplatin (positive control) for a duration of 96 h.
(§2) Two types of ovarian cancer cell lines (A2780 and A2780cis), one breast cancer cell line (MDA-MB-231) and a normal cell line (MRC-5) were cultured following the supplier’s guidelines (Sigma-Aldrich, St. Louis, MO, USA) and maintained at 37 °C in a humidified atmosphere containing 5% CO2. In 96-well plates, 1∙10^3 cancer cells and 8∙10^3 MRC-5 cells were seeded and treated after 24 h with six different concentrations of Pt(0) complexes (0.001, 0.01, 0.1, 1, 10, 100 µM). Stock solutions (10 mM) of all platinum complexes were prepared using DMSO as a solvent. After 96 h of treatment, cell viability was assessed using a CellTiter-Glo assay (Promega, Madison, WI, USA) with Tecan M1000 or SynergyH1 microplate readers (Mennedorf, Switzerland). IC50 values were determined from logistical dose–response curves using GraphPad Prism 8 software. Triplicate measurements were taken to calculate averages, and standard deviations were represented by error bars.
A general note: ATP-based viability assays read luminescence as a measure of living cells.

The test system of data set [2] is MDA-MB-231 (triple-negative breast cancer cells). As to the kind of experiment: Antiproliferative activity (CellTiter-Glo cytotoxicity assay) on MDA-MB-231. It is filed as cell-based, human. The following applies: 96 h of incubation; MDA-MB-231 cells; stock solutions in DMSO (cisplatin in H2O/NaCl). How it is done:
as §1, §2

Data set [3] concerns A2780cis (cisplatin-resistant ovarian cancer cells). As to the kind of experiment: Antiproliferative activity (CellTiter-Glo cytotoxicity assay) on A2780cis. It is filed as cell-based, human. The note with it: 96 h of incubation, stock solutions in DMSO (cisplatin in H2O/NaCl). How it is done: as §1, §2
Data set [4] deals with MRC-5 (normal lung fibroblasts). As to the kind of experiment: Antiproliferative activity (CellTiter-Glo cytotoxicity assay) on MRC-5 normal cells. It is filed as cell-based, human. The following applies: 96 h of incubation, stock solutions in DMSO (cisplatin in H2O/NaCl). How it is done: as §1, §2
Data set [5] in a line: Solubility in DMSO and DMSO/H2O solutions. The class given is physicochemical. From the text:
Therefore, these three platinum derivatives were consequently excluded from biological analyses.

For the molecule `N.N.[Cl][Pt][Cl]` [Cisplatin, reference compound], the 50% inhibitory concentration (IC50) in data set [1] stood at 0.19 ± 0.08 µM; in data set [2], 6.4 ± 0.5 µM; in data set [3] it was 5.4 ± 0.1 µM; in data set [4], 2.9 ± 0.1 µM.
Consider “[(CH3ImCH2Ph)2Pt(η^2-(E)-1,2-ditosylethene)] [Compound 6b]”, for which the IC50 was found to be 1.9 ± 0.3 µM in data set [1], 5.4 ± 0.9 µM in data set [2], 12.91 ± 0.06 µM in data set [3] and 61 ± 13 µM in data set [4].
Turning to “[(CyIC)2Pt(η^2-(E)-1,2-ditosylethene)] [Compound 3d]”, the IC50 was 1.18 ± 0.09 µM in data set [1], 1.2 ± 0.3 µM in data set [2] and 1.4 ± 0.2 µM in data set [3].
“[(DIC)2Pt(η^2-(E)-1,2-ditosylethene)] [Compound 3a]”: the Solubility entry in data set [5] was “low solubility”.
For the molecule “[(P(2-furyl)3)2Pt(η^2-(E)-1,2-ditosylethene)] [Compound 2c]”, the half-maximal inhibitory concentration (IC50) in data set [1] is 17.2 ± 0.8 µM; in data set [2], greater than 100 µM; in data set [3], greater than 100 µM; in data set [4], greater than 100 µM.
“[(P(p-F-Ph)3)2Pt(η^2-(E)-1,2-ditosylethene)] [Compound 2b]”: the IC50 is greater than 100 µM in data set [1], 36 ± 6 µM in data set [2], greater than 100 µM in data set [3] and greater than 100 µM in data set [4].
Regarding “[(P(p-F-Ph)3)(CyIC)Pt(η^2-(E)-1,2-ditosylethene)] [Compound 4h]”, the half-inhibitory concentration (IC50) in data set [1] was 41 ± 10 µM; in data set [2], 37 ± 13 µM; in data set [3], greater than 100 µM; in data set [4] it was greater than 100 µM.
As to “[(P(p-F-Ph)3)(DIC)Pt(η^2-(E)-1,2-ditosylethene)] [Compound 4b]”, the IC50 in data set [1] was 85 ± 23 µM; in data set [2] it was 30 ± 13 µM; in data set [3], greater than 100 µM; in data set [4] it was greater than 100 µM.
Regarding “[(P(p-F-Ph)3)(TIC)Pt(η^2-(E)-1,2-ditosylethene)] [Compound 4f]”, the IC50 was greater than 100 µM in data set [1], 21 ± 2 µM in data set [2], greater than 100 µM in data set [3] and greater than 100 µM in data set [4].
For the molecule “[(P(p-F-Ph)3)(TosMIC)Pt(η^2-(E)-1,2-ditosylethene)] [Compound 4d]”, the IC50 is greater than 100 µM in data set [1], 0.4 ± 0.1 µM in data set [2], greater than 100 µM in data set [3] and 14 ± 1 µM in data set [4].
As for “[(PPh3)2Pt(η^2-(E)-1,2-ditosylethene)] [Compound 2a]”, the half-maximal inhibitory concentration (IC50) is 5.5 ± 0.6 µM in data set [1], 2.6 ± 0.4 µM in data set [2], greater than 100 µM in data set [3] and greater than 100 µM in data set [4].
In the case of “[(PPh3)(CyIC)Pt(η^2-(E)-1,2-ditosylethene)] [Compound 4g]”, the Solubility result in data set [5] is on record as “low solubility”.
Take “[(PPh3)(DIC)Pt(η^2-(E)-1,2-ditosylethene)] [Compound 4a]”: the IC50 was 35 ± 3 µM in data set [1], 1.8 ± 0.6 µM in data set [2], greater than 100 µM in data set [3] and 59 ± 8 µM in data set [4].
Regarding “[(PPh3)(TIC)Pt(η^2-(E)-1,2-ditosylethene)] [Compound 4e]”, in data set [5], the Solubility result is on record as “low solubility”.
For the molecule “[(PPh3)(TosMIC)Pt(η^2-(E)-1,2-ditosylethene)] [Compound 4c]”, the IC50 in data set [1] is 55 ± 17 µM; in data set [2], 1 ± 0.8 µM; in data set [3], greater than 100 µM; in data set [4], 15 ± 3 µM.
As to “[(TIC)2Pt(η^2-(E)-1,2-ditosylethene)] [Compound 3c]”, the half-inhibitory concentration (IC50) in data set [1] amounted to 2.6 ± 0.3 µM; in data set [2], 3.4 ± 0.4 µM; in data set [3], 3.1 ± 0.9 µM; in data set [4] it was 3.5 ± 0.1 µM.
The like results for “[(TolCH2ImCH2Tol)2Pt(η^2-(E)-1,2-ditosylethene)] [Compound 6a]” were, in that order, 1.6 ± 0.1 µM, 36 ± 11 µM, 10 ± 3 µM and greater than 100 µM.
As for “[(TosMIC)2Pt(η^2-(E)-1,2-ditosylethene)] [Compound 3b]”, the half-maximal inhibitory concentration (IC50) in data set [1] came out at 5.4 ± 0.7 µM; in data set [2] it was 5.52 ± 0.03 µM; in data set [3] it was 11 ± 6 µM; in data set [4] it was 22 ± 6 µM.
